Test results published in the CheMixHub viscosity set.
Several values for one entry are separate records, joined by “and”; a condition that tells them apart may be missing. Equal values may be shown once.

Test: xn = mol fraction of the nth substance listed

C/C=C/C(=O)OCC + CCO
viscosity [mPa·s], 101 kPa
Conditions	x1 = 0.0991	x1 = 0.1985	x1 = 0.2994	x1 = 0.3961	x1 = 0.5006	x1 = 0.6	x1 = 0.6968	x1 = 0.7816	x1 = 0.8996
293.15 K	1.026	0.929	0.9257	0.9219	0.878	0.8293	0.8016	0.8351	0.8122
298.15 K	0.9334	0.8523	0.8465	0.8404	0.8061	0.7663	0.7402	0.7648	0.7535
303.15 K	0.8498	0.7812	0.7751	0.7739	0.7411	0.7061	0.6855	0.7052	0.7
313.15 K	0.7166	0.6615	0.6607	0.6588	0.6372	0.6091	0.5958	0.6134	0.6108
323.15 K	0.6156	0.5747	0.5702	0.5686	0.5537	0.5363	0.5284	0.5414	0.5401

O=P([O-])([O-])[O-].[H+].[K+].[K+] + O
viscosity [mPa·s], 101 kPa
Conditions	x1 = 0.0018	x1 = 0.0054	x1 = 0.0089	x1 = 0.012	x1 = 0.016
298.15 K	0.931	1.001	1.091	1.203	1.329
303.15 K	0.8465	0.9207	0.9963	–	1.204
308.15 K	0.7552	0.814	0.8844	0.9818	1.081

Oc1cccc(Cl)c1 + CCO
Conditions	viscosity [mPa·s]
298.15 K, 101 kPa, x1 = 0.5	1.45

c1ccc2c(c1)CCCC2 + Cc1ccccc1
101.3 kPa
Conditions	viscosity
298 K, x2 = 0.2	1.55 mPa·s
298.1 K, x2 = 0.4	1.133 mPa·s
298.2 K, x2 = 0.6	0.9208 mPa·s
298.2 K, x2 = 0.8	0.7036 mPa·s
303.2 K, x2 = 0.5	0.9625 mPa·s
308.2 K, x2 = 0.4	0.9772 mPa·s
308.2 K, x2 = 0.6	0.8034 mPa·s
308.2 K, x2 = 0.8	0.6177 mPa·s and 0.6155 mPa·s
313.1 K, x2 = 0.2	1.209 mPa·s
313.1 K, x2 = 0.5	0.8373 mPa·s
318.1 K, x2 = 0.4	0.8532 mPa·s
318.2 K, x2 = 0.6	0.7034 mPa·s
318.2 K, x2 = 0.8	0.553 mPa·s
323.1 K, x2 = 0.5	0.7376 mPa·s
